Activity calls are given as the source filed them. No cut-off for these calls is given here.
System: Mycobacterium tuberculosis
Assay: Antimycobacterial activity against multidrug-resistant Mycobacterium tuberculosis LAM-1 at 0.73 uM after 4 to 6 days by BACTEC MGIT 960 assay
Type: functional, organism-based

NNC(=O)c1ccncc1 [ISONIAZID]
Activity: inactive

From ChEMBL document CHEMBL3232765, “Anti-mycobacterial activity of 1,3-diaryltriazenes” (Eur J Med Chem, 2014)
